# Patent publication US20240158446A1, “CYCLIC COMPOUND HAVING SELECTIVE INHIBITORY ACTION ON KRAS OVER HRAS AND NRAS” (CHUGAI SEIYAKU KABUSHIKI KAISHA, priority 2021, published 2024)
# Where a SMILES comes first, the peptide text is derived from it. Bridges are numbered along the chain shown (N, C = ends). [ ]: non-standard residue; d: D form. hPhe(3-Cl-4-CF3) = N[C@@H](CCc1ccc(C(F)(F)F)c(Cl)c1)C(=O)O; NPrPhe(4-CF3) = CCCN[C@@H](Cc1ccc(C(F)(F)F)cc1)C(=O)O; NMeGly(cPent) = CN[C@H](C(=O)O)C1CCCC1; Pro(4,4-F2) = O=C(O)[C@@H]1CC(F)(F)CN1; Hyp = O=C(O)[C@@H]1C[C@@H](O)CN1; NMeD = CN[C@@H](CC(=O)O)C(=O)O; NMeL = CN[C@@H](CC(C)C)C(=O)O; Ac5c = NC1(C(=O)O)CCCC1; Ac4c = NC1(C(=O)O)CCC1; NEtG = CCNCC(=O)O; Sar = CNCC(=O)O
# Key:
# [1] = biological target: GDP-bound KRAS wild-type protein (Homo sapiens, UniProt P01116); experiment: Binding to KRAS by surface plasmon resonance (SPR), Single Cycle Kinetics; settings: SPR Single Cycle Kinetics, GDP-bound KRAS wild-type protein, 1:1 binding model; read-out: KRAS KD
# GDP-bound KRAS wild-type protein, sequence (P01116 whole entry): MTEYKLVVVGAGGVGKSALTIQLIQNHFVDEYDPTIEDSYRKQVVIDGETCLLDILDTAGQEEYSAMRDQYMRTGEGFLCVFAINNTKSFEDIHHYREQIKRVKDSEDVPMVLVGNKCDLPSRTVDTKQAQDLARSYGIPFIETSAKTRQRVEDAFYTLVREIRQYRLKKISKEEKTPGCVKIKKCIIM
# [2] = biological target: GDP-bound NRAS wild-type protein (Homo sapiens, UniProt P01111); experiment: Binding to NRAS by surface plasmon resonance (SPR), Single Cycle Kinetics; settings: SPR, GDP-bound NRAS wild-type protein vs GDP-bound KRAS wild-type protein
# GDP-bound NRAS wild-type protein, sequence (P01111 whole entry): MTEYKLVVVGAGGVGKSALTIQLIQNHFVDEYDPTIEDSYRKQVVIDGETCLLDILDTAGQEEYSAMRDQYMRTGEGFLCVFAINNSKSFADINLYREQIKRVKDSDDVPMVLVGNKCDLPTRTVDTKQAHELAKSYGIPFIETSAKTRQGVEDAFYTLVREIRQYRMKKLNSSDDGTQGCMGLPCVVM
# [3] = biological target: GDP-bound HRAS wild-type protein (Homo sapiens, UniProt P01112); experiment: Binding to HRAS by surface plasmon resonance (SPR), Single Cycle Kinetics; settings: SPR, GDP-bound HRAS wild-type protein vs GDP-bound KRAS wild-type protein
# GDP-bound HRAS wild-type protein, sequence (P01112 whole entry): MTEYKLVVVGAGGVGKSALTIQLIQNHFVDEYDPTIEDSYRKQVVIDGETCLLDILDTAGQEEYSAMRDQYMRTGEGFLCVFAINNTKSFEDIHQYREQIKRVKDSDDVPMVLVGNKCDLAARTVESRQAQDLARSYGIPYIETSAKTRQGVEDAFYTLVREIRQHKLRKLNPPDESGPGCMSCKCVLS
Compound,Kd [1] [nM],NRAS/KRAS (ratio of KD value with respect to NRAS to KD value with respect to KRAS) [2],HRAS/KRAS (ratio of KD value with respect to HRAS to KD value with respect to KRAS) [3]
"CCCN1C(=O)CN(C)C(=O)CN(C)C(=O)[C@H]([C@@H](C)CC)NC(=O)[C@H](CC(C)C)N(C)C(=O)C[C@@H](C(=O)N(C)C)N(C)C(=O)[C@H](C2CCCC2)N(C)C(=O)C2(CCCC2)NC(=O)[C@@H]2CC(F)(F)CN2C(=O)[C@H](CCc2ccc(C(F)(F)F)c(Cl)c2)NC(=O)CN(C)C(=O)[C@@H]1Cc1ccc(C(F)(F)F)cc1 [PP0413] ([NMeL]I[Sar][Sar][NPrPhe(4-CF3)][Sar][hPhe(3-Cl-4-CF3)][Pro(4,4-F2)][Ac5c][NMeGly(cPent)][NMeD]-NMe2; lactam N-11)",0.049,C (A compound having a KD ratio of 0.1 or more and less than 3 is denoted as C),C (A compound having a KD ratio of 0.1 or more and less than 3 is denoted as C)
CCCN1C(=O)CN(C)C(=O)CNC(=O)[C@H]([C@@H](C)CC)NC(=O)[C@H](CC(C)C)N(C)C(=O)C[C@@H](C(=O)N(C)C)N(C)C(=O)[C@H](C2CCCC2)N(C)C(=O)C2(CCCC2)NC(=O)[C@@H]2CCCN2C(=O)[C@H](CCc2ccc(C(F)(F)F)c(Cl)c2)NC(=O)CN(C)C(=O)[C@@H]1Cc1ccc(C(F)(F)F)cc1 [PP0417] ([NMeL]IG[Sar][NPrPhe(4-CF3)][Sar][hPhe(3-Cl-4-CF3)]P[Ac5c][NMeGly(cPent)][NMeD]-NMe2; lactam N-11),0.074,B (a compound having 3 or more and less than 10 is denoted as B),C (A compound having a KD ratio of 0.1 or more and less than 3 is denoted as C)
CCCN1C(=O)CN(C)C(=O)CNC(=O)[C@H]([C@@H](C)CC)NC(=O)[C@H](CC(C)C)N(C)C(=O)C[C@@H](C(=O)N(C)C)N(C)C(=O)[C@H](C2CCCC2)N(C)C(=O)C2(CCC2)NC(=O)[C@@H]2CCCN2C(=O)[C@H](CCc2ccc(C(F)(F)F)c(Cl)c2)NC(=O)CN(C)C(=O)[C@@H]1Cc1ccc(C(F)(F)F)cc1 [PP0418] ([NMeL]IG[Sar][NPrPhe(4-CF3)][Sar][hPhe(3-Cl-4-CF3)]P[Ac4c][NMeGly(cPent)][NMeD]-NMe2; lactam N-11),0.074,B (a compound having 3 or more and less than 10 is denoted as B),C (A compound having a KD ratio of 0.1 or more and less than 3 is denoted as C)
"CCCN1C(=O)CN(C)C(=O)CNC(=O)[C@H]([C@@H](C)CC)NC(=O)[C@H](CC(C)C)N(C)C(=O)C[C@@H](C(=O)N(C)C)N(C)C(=O)[C@H](C2CCCC2)N(C)C(=O)C2(CCCC2)NC(=O)[C@@H]2CC(F)(F)CN2C(=O)[C@H](CCc2ccc(C(F)(F)F)c(Cl)c2)NC(=O)CN(C)C(=O)[C@@H]1Cc1ccc(C(F)(F)F)cc1 [PP0419] ([NMeL]IG[Sar][NPrPhe(4-CF3)][Sar][hPhe(3-Cl-4-CF3)][Pro(4,4-F2)][Ac5c][NMeGly(cPent)][NMeD]-NMe2; lactam N-11)",0.067,B (a compound having 3 or more and less than 10 is denoted as B),C (A compound having a KD ratio of 0.1 or more and less than 3 is denoted as C)
CCCN1C(=O)CN(C)C(=O)CN(CC)C(=O)[C@H]([C@@H](C)CC)NC(=O)[C@H](CC(C)C)N(C)C(=O)C[C@@H](C(=O)N(C)C)N(C)C(=O)[C@H](C2CCCC2)N(C)C(=O)C2(CCC2)NC(=O)[C@@H]2CCCN2C(=O)[C@H](CCc2ccc(C(F)(F)F)c(Cl)c2)NC(=O)CN(C)C(=O)[C@@H]1Cc1ccc(C(F)(F)F)cc1 [PP0424] ([NMeL]I[NEtG][Sar][NPrPhe(4-CF3)][Sar][hPhe(3-Cl-4-CF3)]P[Ac4c][NMeGly(cPent)][NMeD]-NMe2; lactam N-11),0.17,B (a compound having 3 or more and less than 10 is denoted as B),C (A compound having a KD ratio of 0.1 or more and less than 3 is denoted as C)

# Stronger by Kd [1], values ahead:
Kd [1] [nM],Compound,NRAS/KRAS (ratio of KD value with respect to NRAS to KD value with respect to KRAS) [2],HRAS/KRAS (ratio of KD value with respect to HRAS to KD value with respect to KRAS) [3]
0.043,CCCN1C(=O)CN(C)C(=O)CN(C)C(=O)[C@H]([C@@H](C)CC)NC(=O)[C@H](CC(C)C)N(C)C(=O)C[C@@H](C(=O)N(C)C)N(C)C(=O)[C@H](C2CCCC2)N(C)C(=O)C2(CCC2)NC(=O)[C@@H]2CCCN2C(=O)[C@H](CCc2ccc(C(F)(F)F)c(Cl)c2)NC(=O)CN(C)C(=O)[C@@H]1Cc1ccc(C(F)(F)F)cc1 [PP0412] ([NMeL]I[Sar][Sar][NPrPhe(4-CF3)][Sar][hPhe(3-Cl-4-CF3)]P[Ac4c][NMeGly(cPent)][NMeD]-NMe2; lactam N-11),B (a compound having 3 or more and less than 10 is denoted as B),C (A compound having a KD ratio of 0.1 or more and less than 3 is denoted as C)
0.034,"CCCN1C(=O)CN(C)C(=O)CNC(=O)[C@H]([C@@H](C)CC)NC(=O)[C@H](CC(C)C)N(C)C(=O)C[C@@H](C(=O)N(C)C)N(C)C(=O)[C@H](C2CCCC2)N(C)C(=O)C2(CCC2)NC(=O)[C@@H]2CC(F)(F)CN2C(=O)[C@H](CCc2ccc(C(F)(F)F)c(Cl)c2)NC(=O)CN(C)C(=O)[C@@H]1Cc1ccc(C(F)(F)F)cc1 [PP0420] ([NMeL]IG[Sar][NPrPhe(4-CF3)][Sar][hPhe(3-Cl-4-CF3)][Pro(4,4-F2)][Ac4c][NMeGly(cPent)][NMeD]-NMe2; lactam N-11)",B (a compound having 3 or more and less than 10 is denoted as B),C (A compound having a KD ratio of 0.1 or more and less than 3 is denoted as C)
0.033,CCCN1C(=O)CN(C)C(=O)CNC(=O)[C@H]([C@@H](C)CC)NC(=O)[C@H](CC(C)C)N(C)C(=O)C[C@@H](C(=O)N(C)C)N(C)C(=O)[C@H](C2CCCC2)N(C)C(=O)C2(CCCC2)NC(=O)[C@@H]2C[C@@H](OCC)CN2C(=O)[C@H](CCc2ccc(C(F)(F)F)c(Cl)c2)NC(=O)CN(C)C(=O)[C@@H]1Cc1ccc(C(F)(F)F)cc1 [PP0421] ([NMeL]IG[Sar][NPrPhe(4-CF3)][Sar][hPhe(3-Cl-4-CF3)][Hyp](Et)[Ac5c][NMeGly(cPent)][NMeD]-NMe2; lactam N-11),B (a compound having 3 or more and less than 10 is denoted as B),C (A compound having a KD ratio of 0.1 or more and less than 3 is denoted as C)
0.029,"CCCN1C(=O)CN(C)C(=O)CN(C)C(=O)[C@H]([C@@H](C)CC)NC(=O)[C@H](CC(C)C)N(C)C(=O)C[C@@H](C(=O)N(C)C)N(C)C(=O)[C@H](C2CCCC2)N(C)C(=O)C2(CCC2)NC(=O)[C@@H]2CC(F)(F)CN2C(=O)[C@H](CCc2ccc(C(F)(F)F)c(Cl)c2)NC(=O)CN(C)C(=O)[C@@H]1Cc1ccc(C(F)(F)F)cc1 [PP0414] ([NMeL]I[Sar][Sar][NPrPhe(4-CF3)][Sar][hPhe(3-Cl-4-CF3)][Pro(4,4-F2)][Ac4c][NMeGly(cPent)][NMeD]-NMe2; lactam N-11)",B (a compound having 3 or more and less than 10 is denoted as B),C (A compound having a KD ratio of 0.1 or more and less than 3 is denoted as C)
0.027,CCCN1C(=O)CN(C)C(=O)CN(C)C(=O)[C@H]([C@@H](C)CC)NC(=O)[C@H](CC(C)C)N(C)C(=O)C[C@@H](C(=O)N(C)C)N(C)C(=O)[C@H](C2CCCC2)N(C)C(=O)C2(CCC2)NC(=O)[C@@H]2C[C@@H](OCC)CN2C(=O)[C@H](CCc2ccc(C(F)(F)F)c(Cl)c2)NC(=O)CN(C)C(=O)[C@@H]1Cc1ccc(C(F)(F)F)cc1 [PP0416] ([NMeL]I[Sar][Sar][NPrPhe(4-CF3)][Sar][hPhe(3-Cl-4-CF3)][Hyp](Et)[Ac4c][NMeGly(cPent)][NMeD]-NMe2; lactam N-11),B (a compound having 3 or more and less than 10 is denoted as B),C (A compound having a KD ratio of 0.1 or more and less than 3 is denoted as C)
0.018,CCCN1C(=O)CN(C)C(=O)CN(C)C(=O)[C@H]([C@@H](C)CC)NC(=O)[C@H](CC(C)C)N(C)C(=O)C[C@@H](C(=O)N(C)C)N(C)C(=O)[C@H](C2CCCC2)N(C)C(=O)C2(CCCC2)NC(=O)[C@@H]2C[C@@H](OCC)CN2C(=O)[C@H](CCc2ccc(C(F)(F)F)c(Cl)c2)NC(=O)CN(C)C(=O)[C@@H]1Cc1ccc(C(F)(F)F)cc1 [PP0415] ([NMeL]I[Sar][Sar][NPrPhe(4-CF3)][Sar][hPhe(3-Cl-4-CF3)][Hyp](Et)[Ac5c][NMeGly(cPent)][NMeD]-NMe2; lactam N-11),B (a compound having 3 or more and less than 10 is denoted as B),B (a compound having 3 or more and less than 10 is denoted as B)
0.017,CCCN1C(=O)CN(C)C(=O)CNC(=O)[C@H]([C@@H](C)CC)NC(=O)[C@H](CC(C)C)N(C)C(=O)C[C@@H](C(=O)N(C)C)N(C)C(=O)[C@H](C2CCCC2)N(C)C(=O)C2(CCC2)NC(=O)[C@@H]2C[C@@H](OCC)CN2C(=O)[C@H](CCc2ccc(C(F)(F)F)c(Cl)c2)NC(=O)CN(C)C(=O)[C@@H]1Cc1ccc(C(F)(F)F)cc1 [PP0422] ([NMeL]IG[Sar][NPrPhe(4-CF3)][Sar][hPhe(3-Cl-4-CF3)][Hyp](Et)[Ac4c][NMeGly(cPent)][NMeD]-NMe2; lactam N-11),B (a compound having 3 or more and less than 10 is denoted as B),B (a compound having 3 or more and less than 10 is denoted as B)
